In publication PMC12442448, “A third type of PETase from the marine Halopseudomonas lineage” (Protein Science : A Publication of the Protein Society, 2025):

Biological target: T1, HaloPETase1 (Halopseudomonas pachastrellae, UniProt A0A1S8DDV9)
T1 construct: gene BXT89_15940; N-terminal signal peptide removed; N-10xHis-SUMO tag cut with SenP2 (tag kept in agar-plate screen); extra N-terminal Ser and C-terminal Ala from FX cloning; E. coli Shuffle T7
T1 sequence (A0A1S8DDV9 24-289): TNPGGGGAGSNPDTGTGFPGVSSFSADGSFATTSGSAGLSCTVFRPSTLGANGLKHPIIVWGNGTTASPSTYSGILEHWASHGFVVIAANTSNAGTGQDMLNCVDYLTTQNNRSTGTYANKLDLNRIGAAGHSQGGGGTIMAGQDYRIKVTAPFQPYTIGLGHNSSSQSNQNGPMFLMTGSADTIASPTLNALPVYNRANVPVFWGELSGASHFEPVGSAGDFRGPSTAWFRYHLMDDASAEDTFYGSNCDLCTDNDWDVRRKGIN
Assay: absorbance at […] nm, initial rate (residual activity assay)
Assay type: biochemical
Details: 1 mM substrate, 20 mM NaPi, pH 7.4, 150 mM NaCl, 1% DMSO; tag removed

## CCCC(=O)Oc1ccc([N+](=O)[O-])cc1 [para‐nitrophenyl butyrate]
  absorbance at 405 nm, initial rate (residual activity assay): the residual activity was measured by a para‐nitrophenyl butyrate (pNPB) assay
